Key:
LNCaP = assay: Cytotoxicity against human LNCAP cells; type: functional, cell-based
Col2 = assay: Cytotoxicity against human Col2 cells; type: functional, cell-based
HUVEC = assay: Cytotoxicity against HUVEC; type: cell-based; settings: Homo sapiens
KB = assay: Cytotoxicity against human KB cells; type: functional, cell-based
Lu1 = assay: Cytotoxicity against human Lu1 cells; type: functional, cell-based
[1] = Cytotoxicity against human HOG.R5 cells; type: cell-based
[2] = test system: Human immunodeficiency virus 1; assay: Antiviral activity against HIV1 3B infected in human HOG.R5 cells after 4 days; type: functional, organism-based; settings: Human immunodeficiency virus 1, 3B, HOG.R5, 96 h

Structure (SMILES)	IC50 (LNCaP)	IC50 (Col2)	IC50 (HUVEC)	IC50 (KB)	IC50 (Lu1)	CC50 [1]	IC50 [2]
COc1cc(C#C/C=C/COc2ccc(O)cc2)ccc1O	> 20 µg/mL	> 20 µg/mL	> 20 µg/mL	40.5 µM	66.5 µM	< 17 µM	–
C=CC(/C=C\c1ccc(O)cc1)c1ccc(OC)c(O)c1 (stereo not given)	41.1 µM	41.4 µM	58.1 µM	31.9 µM	25.5 µM	12 µM	–
C=CC(CC(=O)c1ccc(O)cc1)c1ccc(O)cc1 (stereo not given)	> 20 µg/mL	> 20 µg/mL	> 20 µg/mL	> 20 µg/mL	> 20 µg/mL	76.8 µM	74.6 µM
C=CC(/C=C\c1ccc(O)cc1)c1ccc(O)c(OC)c1 (stereo not given)	23.4 µM	22.3 µM	23.7 µM	31.9 µM	15.9 µM	24.1 µM	–
C[C@H]1CC[C@@]2(OC1)O[C@H]1C[C@H]3[C@@H]4CC[C@@H]5C[C@@H](O[C@@H]6O[C@H](CO[C@@H]7OC[C@H](O)[C@H](O)[C@H]7O)[C@@H](O[C@@H]7OC[C@H](O)[C@H](O)[C@H]7O)[C@H](O)[C@H]6O[C@@H]6O[C@H](CO)[C@@H](O)[C@H](O)[C@H]6O)CC[C@]5(C)[C@H]4CC[C@]3(C)[C@H]1[C@@H]2C [ASPARACOSIDE]	10.1 µM	5.4 µM	4.1 µM	4.8 µM	4.2 µM	< 10 µM	–
C[C@@H]1CC[C@@]2(OC1)O[C@H]1C[C@H]3[C@@H]4CCC5=CC(=O)CC[C@]5(C)[C@H]4C[C@@H](O)[C@]3(C)[C@@]1(O)[C@@H]2C [ASPARACOSIN A]	> 20 µg/mL	> 20 µg/mL	> 20 µg/mL	24.1 µM	> 20 µg/mL	–	–
COC1(OC)CC[C@@]2(C)[C@H](CC[C@@H]3[C@@H]2CC(=O)[C@@]2(C)[C@H]3C[C@@H]3O[C@]4(CC[C@@H](C)CO4)[C@@H](C)[C@@]32O)C1 [ASPARACOSIN B]	> 20 µg/mL	> 20 µg/mL	> 20 µg/mL	> 20 µg/mL	> 20 µg/mL	–	–
Oc1ccc(C#C/C=C/COc2ccc(O)cc2)cc1 [ASPARENYDIOL]	> 20 µg/mL	> 20 µg/mL	> 20 µg/mL	8.5 µM	70.1 µM	< 18 µM	–
COc1cc(/C=C/CO)ccc1O [CONIFERYL ALCOHOL]	> 20 µg/mL	> 20 µg/mL	> 20 µg/mL	> 20 µg/mL	> 20 µg/mL	–	–
Cc1c2ccncc2c(C)c2c1[nH]c1ccccc12 [ELLIPTECINE]	3.25 µM	1.22 µM	0.37 µM	0.16 µM	0.08 µM	0.08 µM	–
C=C[C@H](/C=C\c1ccc(O)cc1)c1ccc(O)cc1 [NYASOL]	> 20 µg/mL	> 20 µg/mL	> 20 µg/mL	> 20 µg/mL	> 20 µg/mL	58.1 µM	46.4 µM

— ChEMBL document CHEMBL1146477, “Bioactive constituents from Asparagus cochinchinensis” (J Nat Prod, 2004)
